The experiment concerns the target T1, Apo REV-ERBβ LBD (Homo sapiens, UniProt Q14995).
T1 construct: The human REV-ERBβ LBD (residues 381 to 579) was previously cloned; 6xHis with 3C protease cleavage site (N, cleaved yes); made in house; host or cells: E. coli BL21(DE3)
T1 sequence (Q14995 381-579): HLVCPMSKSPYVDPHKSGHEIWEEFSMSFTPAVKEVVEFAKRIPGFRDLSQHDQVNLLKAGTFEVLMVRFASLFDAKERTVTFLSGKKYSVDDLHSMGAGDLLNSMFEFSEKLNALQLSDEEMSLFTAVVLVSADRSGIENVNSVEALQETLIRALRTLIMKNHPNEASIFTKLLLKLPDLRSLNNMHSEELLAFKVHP
Kind of experiment: ITC, NCoR ID peptides with apo REV-ERBβ LBD. The experiment is classed as binding. The source says: The human REV-ERBβ LBD (residues 381 to 579) was previously cloned into the pET46 vector ([18]). The mouse NCoR RID (residues 1942 to 2208 in the X50 splice variant), which has 87% sequence identity to human NCoR RID (100% sequence identity in the ID motifs), was previously cloned into the pET32 vector ([29]). NCoR RID mutants were generated by site-directed mutagenesis: The ID1 CoRNR box motif was mutated from […] to […] (ΔID1 and ΔID1ΔID2), and the ID2 CoRNR box motif was mutated from LEDIIRKAL to TEDTTRKAL (ΔID2 and ΔID1ΔID2), as these mutations were previously reported to disrupt CoRNR box binding ([10], [30]). Heme (Sigma-Aldrich, no. 51280) was prepared either as a 1 mM stock in dimethyl sulfoxide (DMSO) stored at 4°C or 50 mM stock in 0.2 M NaOH (solutions prepared in 0.2 M NaOH were always made fresh immediately before the experiment), where indicated. […] Human embryonic kidney (HEK) 293T cells (American Type Culture Collection, no. CRL-11268) were cultured in Dulbecco’s modified eagle medium (DMEM) supplemented with 10% fetal bovine serum, 2 mM L-glutamine, and 1% penicillin-streptomycin at 37°C and 5% CO2 under standard culture conditions. The pcDNA3.1^+ expression vector containing full-length human REV-ERBβ ([31]) and the pGL3-Bmal1-luciferase construct containing the Bmal1 promoter (−816 to +99 of the mouse Bmal1 promoter region) were used in HEK293T cell transfections. Site-directed mutagenesis was performed to mutate the proximal RORE (pRORE mutant), distal RORE (dRORE mutant), or both (p/dRORE mutant) in the pGL3-Bmal1-luciferase construct based on a previous study ([6]) where the ROREs were mutated to disrupt REV-ERBα activity.
Human REV-ERBβ LBD was expressed in BL21(DE3) Escherichia coli cells with an N-terminal hexahistidine (6xHis) tag separated by a 3C protease cleavage site. Expression was performed using auto-induction media: Cells were grown at 37°C for 5 hours, 30°C for 1 hour, and 18°C for 16 hours before harvesting by centrifugation. Pellets were resuspended in potassium phosphate lysis buffer [40 mM potassium phosphate (pH 7.4), 500 mM KCl, 15 mM imidazole, and 1 mM dithiothreitol (DTT)] supplemented with leupeptin, pepstatin A, lysozyme, and deoxyribonuclease (DNase) I and sonicated on ice. […] A 5-ml aliquot of 6xHis-tagged protein was purified by size exclusion chromatography using a Superdex 75 column equilibrated in time-resolved fluorescence energy transfer (TR-FRET) assay buffer [20 mM potassium phosphate (pH 7.4), 50 mM KCl, and 0.5 mM EDTA]; purified aliquots were stored at −80°C for TR-FRET assays. To cleave the 6xHis tag from the remaining protein, it was incubated overnight with 3C protease (generated in-house) via dialysis; then, protein was reloaded onto the HisTrap columns, and the flow-through was collected. Last, aggregates were removed by size exclusion chromatography using a Superdex 75 column and Hepes gel filtration buffer [20 mM Hepes (pH 7.4), 50 mM KCl, and 0.5 mM EDTA]. Greater than 95% purity was confirmed by SDS-PAGE. Protein was aliquoted and stored at −80°C.
ITC experiments were performed using a MicroCal iTC200. All experiments were solvent-matched and contained 0.1% DMSO (peptide vehicle) and 0.2% 0.2 M solution of NaOH (heme vehicle) final concentrations. NITPIC software ([37]) was used to calculate baselines and integrate curves and prepare experimental data for fitting in SEDPHAT, which was used to generate final binding affinity and thermodynamic parameter measurements ([38]).Final figures were exported to GUSSI for publication-quality figure preparation ([39]).
NCoR ID1 and NCoR ID2 peptides were prepared at 50 μM in assay buffer [20 mM Hepes (pH 7.4), 50 mM KCl, 0.5 mM EDTA, and 5 mM tris(2-carboxyethyl)phosphine (TCEP)], and REV-ERBβ LBD was prepared at 500 μM. […]

The mark [1] stands for this setting: ID2 peptide, 25°C, fitted estimate due to low c value, 95% CI n.d.
Where [2] appears, read: ID1 peptide, pH 7.4, 25°C, 95% CI.

For `CC[C@H](C)[C@H](NC(=O)[C@H](CC(=O)O)NC(=O)[C@H](CCC(=O)O)NC(=O)[C@H](CC(C)C)NC(=O)CNC(=O)[C@H](CC(C)C)NC(=O)[C@H](CC(N)=O)NC(=O)[C@H](CO)NC(=O)[C@H](C)NC(=O)[C@@H]1CCCN1C(=O)[C@H](CC(=O)O)NC(C)=O)C(=O)N[C@H](C(=O)N[C@@H](CCCNC(=N)N)C(=O)N[C@@H](CCCCN)C(=O)N[C@@H](C)C(=O)N[C@@H](CC(C)C)C(=O)N[C@@H](CCSC)C(=O)NCC(=O)N[C@@H](CO)C(=O)N[C@@H](Cc1ccccc1)C(=O)N[C@@H](CC(=O)O)C(=O)N[C@@H](CC(=O)O)C(=O)N[C@@H](CCCCN)C(N)=O)[C@@H](C)CC` [NCoR ID2 peptide], the “affinity of apo LBD for peptide (in words)” value is “low affinity”; the “thermodynamic profile of peptide binding (in words), apo” value is “enthalpically driven and exothermic”. In addition, under setting [1], the TΔS is -4.2 kcal/mol; the “ΔG, free energy of binding” value was -5.6 kcal/mol; the “ΔH, enthalpy of binding” value is -9.7 kcal/mol.
On to “Ac-RTHRLITLADHICQIITQDFARN-NH2 [NCoR ID1 peptide]”, for which the “affinity of apo LBD for peptide (in words)” value is “high affinity”; the “thermodynamic profile of peptide binding (in words), apo” value was “enthalpically driven and exothermic”. In addition, under setting [2], the “ΔG, free energy of binding” value is -8.6 kcal/mol and the “ΔH, enthalpy of binding” value is -7.7 kcal/mol. The compound further registered a TΔS (ID1 peptide, pH 7.4, T constant at 25°C, 95% CI) of 0.88 kcal/mol.

The values above are taken from paper PMC7840129, “Structural basis for heme-dependent NCoR binding to the transcriptional repressor REV-ERBβ” (Science Advances, 2021).
